# Measured values as given in patent US20100099564A1, “HERBICIDE COMBINATION COMPRISING DIMETHOXYTRIAZINYL-SUBSTITUTED DIFLUOROMETHANESULFONYLANILIDES” (BAYER CROPSCIENCE AG, priority 2008, published 2010).
# Assays:
# Assay type in all cases: in vivo
# [1] = system: Viola tricolor (VIOTR); experiment: Post-emergence action, greenhouse pot test, visual scoring: VIOTR; conditions: 21 DAT; dose (6) 100
# Protocol: (§1) Seeds or rhizome pieces of mono- and dicotyledonous harmful and useful plants were placed in peat pots (diameter 4 cm) filled with sandy loam and then covered with soil. The pots were kept in a greenhouse under optimum conditions. In addition, harmful plants encountered in paddy rice cultivation were cultivated in pots with a water level 2 cm above the soil surface.
# (§2) About three weeks after the start of the cultivation, the test plants were treated at the 2- to 3-leaf stage. The herbicides, formulated as powder or liquid concentrates, were, either alone or in the combinations according to the invention, sprayed in various dosages on to the green parts of the plants using an application rate of 600 l of water/ha (converted). For further cultivation of the plants, the pots were then again kept under optimum conditions in a greenhouse.
# (§3) The visual scoring of the herbicidal effects was carried out in intervals up to 21 days after the treatment. Scoring was carried out in percent in comparison to the untreated control plants. 0%=no herbicidal activity, 100%=complete herbicidal activity=complete kill.
# (§4) The percentages from the treatments with the herbicides alone (=individual application) and with the combinations according to the invention (=mixtures) were employed to calculate interactions using the method of Colby. When the observed efficacies of the mixtures exceed the formal sum of the values of the tests with individual applications, they also exceed the expected value according to Colby, which is calculated using the formula below (cf. S. R. Colby; in Weeds 15 (1967) pp. 20 to 22):
# (§5) Here: • A, B=activity of components A and B in percent at a dosage of a and b g of ai/ha (=gramm of active substance per hectare), respectively. • E=expected value in % at a dosage of a+b g of ai/ha.
# (§6) The combinations according to the invention of herbicides from group (A) with herbicides from group (B) were tested on a broad spectrum of important harmful plants (weed grasses, broad-leaved weeds/Cyperaceae) and useful plants: Triticum aestivum (TRZAS), Stellaria media (STEME), Lolium multiflorum (LOLMU), Veronica persica (VERPE), Alopecurus myosuroides (ALOMY), Matricaria inodora (MATIN), Brassica napus (BRSNW), Viola tricolor (VIOTR), Avena fatua (AVEFA), Amaranthus retroflexus (AMARE), Zea mays (ZEAMX), Pharbitis purpurea (PHBPU), Setaria viridis (SETVI), Fallopia (ex Polygonum) convolvulus (POLCO), Echinochloa crusgaffi (ECHCG), Abuthilon theophrasti (ABUTH), Cyperus esculentus (CYPES), Oryza sativa (ORYSA).
# (§7) Of particular interest are the results shown in the tables (Tab.) below, where the following key is used: • (1) EPPO code (former Bayer code) for the treated plant (see above) • (2) Time of scoring: DAT (days after treatment) • (3) Component A tested (identifying number) • (4) Component B tested (identifying number) • (5) Dosage component A [g of ai/ha] • (6) Dosage component B [g of ai/ha] • (7) % activity found • (8) E value (calculated according to Colby; see above) • (9) Comments: “SYNERGY” =synergistic interaction (E value<% activity found); “SAFENING”=safener action on useful plant (E value>% activity found)
# [2] = system: Pharbitis purpurea (PHBPU); experiment: Post-emergence action, greenhouse pot test, visual scoring: PHBPU; conditions: 21 DAT
# Protocol: as §1, §2, §3, §4, §5, §6, §7
# [3] = system: Amaranthus retroflexus (AMARE); experiment: Post-emergence action, greenhouse pot test, visual scoring: AMARE; conditions: 21 DAT; dose (6) 300
# Protocol: as §1, §2, §3, §4, §5
# [4] = system: Cyperus esculentus (CYPES); experiment: Post-emergence action, greenhouse pot test, visual scoring: CYPES; conditions: for (7) % activity found: rate (6) 18
# Protocol: as §1, §2, §3, §4, §5
# [5] = system: Veronica persica (VERPE); experiment: Post-emergence action, greenhouse pot test, visual scoring: VERPE
# Protocol: as §1, §2, §3, §4, §5, §6, §7
# [6] = system: Abuthilon theophrasti (ABUTH); experiment: Post-emergence action, greenhouse pot test, visual scoring: ABUTH; conditions: 21 DAT
# Protocol: as §1, §2, §3, §4, §5, §6, §7
# [7] = system: Fallopia (ex Polygonum) convolvulus (POLCO); experiment: Post-emergence action, greenhouse pot test, visual scoring: POLCO; conditions: 21 DAT
# Protocol: as §1, §2, §3, §4, §5, §6, §7
# [8] = system: Stellaria media (STEME); experiment: Post-emergence action, greenhouse pot test, visual scoring: STEME; conditions: 10 DAT
# Protocol: as §1, §2, §3, §4, §5, §6, §7
# [9] = system: Avena fatua (AVEFA); experiment: Post-emergence action, greenhouse pot test, visual scoring: AVEFA
# Protocol: as §1, §2, §3, §4, §5, §6, §7
# [10] = system: Alopecurus myosuroides (ALOMY); experiment: Post-emergence action, greenhouse pot test, visual scoring: ALOMY; conditions: for (7) % activity found: 21 DAT
# Protocol: as §1, §2, §3, §4, §5
# [11] = system: Matricaria inodora (MATIN); experiment: Post-emergence action, greenhouse pot test, visual scoring: MATIN; conditions: dose (6) 100
# Protocol: as §1, §2, §3, §4, §5
# [12] = system: Triticum aestivum (TRZAS); experiment: Post-emergence action, greenhouse pot test, visual scoring: TRZAS; conditions: for (7) % activity found: 21 DAT
# Protocol: as §1, §2, §3, §4, §5, §6, §7
# [13] = system: Echinochloa crusgaffi (ECHCG); experiment: Post-emergence action, greenhouse pot test, visual scoring: ECHCG; conditions: 10 DAT
# Protocol: as §1, §2, §3, §4, §5, §6, §7
# [14] = system: Setaria viridis (SETVI); experiment: Post-emergence action, greenhouse pot test, visual scoring: SETVI; conditions: 21 DAT
# Protocol: as §1, §2, §3, §4, §5, §6, §7
# [15] = system: Lolium multiflorum (LOLMU); experiment: Post-emergence action, greenhouse pot test, visual scoring: LOLMU; conditions: for % activity found: 10 DAT; for (7) % activity found: 21 DAT
# Protocol: as §1, §2, §3, §4, §5, §6, §7
smiles,measurement,setting,value
"CCCOCCN(C(=O)CCl)c1c(CC)cccc1CC [B4-8, 2-chloro-N-(2,6-diethylphenyl)-N-(2-propoxyethyl)acetamide]",% activity found,[1],10%
same,% activity found,[2]; dose (6) 100,0%
same,% activity found,[2]; dose (6) 300,0%
same,% activity found,[3],20%
same,% activity found,"[4]; 21 DAT, dose (6) 100",0%
same,% activity found,"[4]; 21 DAT, dose (6) 300",0%
same,% activity found,"[5]; 10 DAT, dose (6) 100",0%
same,% activity found,"[5]; 10 DAT, dose (6) 300",0%
same,% activity found,"[5]; 21 DAT, dose (6) 100",0%
same,% activity found,"[5]; 21 DAT, dose (6) 300",0%
same,% activity found,[6]; dose (6) 100,0%
same,% activity found,[6]; dose (6) 300,0%
same,% activity found,[7]; dose (6) 100,0%
same,% activity found,[7]; dose (6) 300,20%
same,% activity found,[8]; dose (6) 100,10%
same,% activity found,[8]; dose (6) 300,10%
same,% activity found,"[9]; 10 DAT, dose (6) 100",0%
same,% activity found,"[9]; 21 DAT, dose (6) 100",0%
same,% activity found,"[9]; 21 DAT, dose (6) 300",30%
same,pest or weed control at 100 g/ha,"[10]; Alopecurus myosuroides, post-emergence, 240 h, 10 DAT, B 100 g of ai/ha, read-out: % activity found",10%
same,% activity found,[11]; 10 DAT,0%
same,% activity found,[11]; 21 DAT,0%
same,plant injury at 300 g/ha,"[12]; Triticum aestivum, post-emergence, 240 h, 10 DAT, B 300 g of ai/ha, read-out: % activity found",10%
"COc1cc(OC)nc(NC(=O)NS(=O)(=O)Nc2ccccc2C(=O)C2CC2)n1 [B7-7, N-[[[2-(cyclopropylcarbonyl)phenyl]amino]sulfonyl]-N′-(4,6-dimethoxy-2-pyrimidinyl)urea]",(7) % activity found,[4]; 10 DAT,0%
same,(7) % activity found,[4]; 21 DAT,40%
same,(7) % activity found,[13]; rate (6) 18,0%
same,(7) % activity found,[13]; rate (6) 54,0%
same,(7) % activity found,[14]; rate (6) 18,20%
same,(7) % activity found,[14]; rate (6) 54,20%
same,% activity found,[15]; dose (6) 18,0%
same,% activity found,[15]; dose (6) 54,0%
same,(7) % activity found,[15]; rate (6) 18,0%
same,(7) % activity found,[15]; rate (6) 54,0%
same,% activity found,"[9]; 10 DAT, dose (6) 18",0%
same,% activity found,"[9]; 10 DAT, dose (6) 54",30%
same,(7) % activity found,"[9]; 21 DAT, rate (6) 18",0%
same,(7) % activity found,"[9]; 21 DAT, rate (6) 54",10%
same,(7) % activity found,[10]; rate (6) 18,30%
same,(7) % activity found,[10]; rate (6) 54,40%
same,(7) % activity found,[12]; rate (6) 18,0%
same,(7) % activity found,[12]; rate (6) 54,0%
